From PMC10847306, “The antibacterial activity and mechanism of a novel peptide MR-22 against multidrug-resistant Escherichia coli” (Frontiers in Cellular and Infection Microbiology, 2024)
Converted amounts (≈) assume the structure as drawn. Each block holds one molecule with its values, some of them ahead of it.

Legend:
Assay in all cases: microbe, parasite or virus in culture
[1] = system: E. coli ATCC 25922; conditions: for susceptibility category (S/I/R) given with the MIC: E. coli ATCC 25922; for MIC: Escherichia coli, ATCC25922, 18 h
Experimental: (§1) The MIC were determined by a micro dilution method in Mueller-Hinton broth (MHB) ([Cuenca-Estrella et al., 2010]). The final concentration of bacterial suspension in MHB were 1.0×10^6 CFU/mL. The final concentration of MR-22 ranged 1 ~ 256 μg/mL in 96 wells plate broth at 37°C for 16~18 h. Imipenem was employed as positive control, bacterial grown without treatment as negative control and MHB as blank control. MIC determination was performed by reading the OD600 nm. Take 100 μL samples in holes that have never seen bacterial growth and place them on the LB agar board. The concentration of MR-22 with no bacterial growth was defined as the MBC.

[2] = system: E. coli clinical strain E01; conditions: for MIC: Escherichia coli, 18 h; for susceptibility category (S/I/R) given with the MIC: strain E01
Experimental: (§2) The clinical strains used in this study were obtained from a tertiary healthcare facility located in Guiyang, a city situated within the Guizhou Province of China. The E. coli ATCC 25922 was obtained from the Key and Characteristic Laboratory of Modern Pathogen Biology at Guizhou Medical University in Guiyang, China. All strains were stored at –80°C in LB medium and routinely cultured at LB medium at 37°C.
as §1

[3] = system: E. coli clinical strain E02; conditions: for MIC: Escherichia coli, 18 h; for susceptibility category (S/I/R) given with the MIC: strain E02
Experimental: as §2, §1

[4] = system: E. coli clinical strain E03; conditions: for MIC: Escherichia coli, 18 h; for susceptibility category (S/I/R) given with the MIC: strain E03
Experimental: as §2, §1

[5] = system: E. coli clinical strain E04; conditions: for MIC: Escherichia coli, 18 h; for susceptibility category (S/I/R) given with the MIC: strain E04
Experimental: as §2, §1

[6] = system: E. coli clinical strain E05; conditions: for MIC: Escherichia coli, 18 h; for susceptibility category (S/I/R) given with the MIC: strain E05
Experimental: as §2, §1

[7] = system: E. coli clinical strain E06; conditions: for MIC: Escherichia coli, 18 h; for susceptibility category (S/I/R) given with the MIC: strain E06
Experimental: as §2, §1

[8] = system: E. coli clinical strain E07; conditions: for MIC: Escherichia coli, 18 h; for susceptibility category (S/I/R) given with the MIC: strain E07
Experimental: as §2, §1

[9] = system: E. coli clinical strain E08; conditions: for MIC: Escherichia coli, 18 h; for susceptibility category (S/I/R) given with the MIC: strain E08
Experimental: as §2, §1

[10] = system: E. coli clinical strain E09; conditions: for MIC: Escherichia coli, 18 h; for susceptibility category (S/I/R) given with the MIC: strain E09
Experimental: as §2, §1

[11] = system: E. coli clinical strain E10; conditions: for MIC: Escherichia coli, 18 h; for susceptibility category (S/I/R) given with the MIC: strain E10
Experimental: as §2, §1

[12] = system: E. coli clinical strain E11; conditions: for MIC: Escherichia coli, 18 h; for susceptibility category (S/I/R) given with the MIC: strain E11
Experimental: as §2, §1

[13] = system: E. coli clinical strain E12; conditions: for MIC: Escherichia coli, 18 h; for susceptibility category (S/I/R) given with the MIC: strain E12
Experimental: as §2, §1

[14] = system: E. coli clinical strain E13; conditions: for MIC: Escherichia coli, 18 h; for susceptibility category (S/I/R) given with the MIC: strain E13
Experimental: as §2, §1

[15] = system: E. coli clinical strain E14; conditions: for MIC: Escherichia coli, 18 h; for susceptibility category (S/I/R) given with the MIC: strain E14
Experimental: as §2, §1

[16] = system: E. coli clinical strain E15; conditions: for MIC: Escherichia coli, 18 h; for susceptibility category (S/I/R) given with the MIC: strain E15
Experimental: as §2, §1

[17] = system: E. coli clinical strain E16; conditions: for MIC: Escherichia coli, 18 h; for susceptibility category (S/I/R) given with the MIC: strain E16
Experimental: as §2, §1

[18] = system: E. coli clinical strain E17; conditions: for MIC: Escherichia coli, 18 h; for susceptibility category (S/I/R) given with the MIC: strain E17
Experimental: as §2, §1

[19] = system: E. coli clinical strain E18; conditions: for MIC: Escherichia coli, 18 h; for susceptibility category (S/I/R) given with the MIC: strain E18
Experimental: as §2, §1

[20] = system: E. coli clinical strain E19; conditions: for MIC: Escherichia coli, 18 h; for susceptibility category (S/I/R) given with the MIC: strain E19
Experimental: as §2, §1

[21] = system: E. coli clinical strain E20; conditions: for MIC: Escherichia coli, 18 h; for susceptibility category (S/I/R) given with the MIC: strain E20
Experimental: as §2, §1

[22] = system: E. coli clinical strain E21; conditions: for MIC: Escherichia coli, 18 h; for susceptibility category (S/I/R) given with the MIC: strain E21
Experimental: as §2, §1

[23] = system: E. coli clinical strain E22; conditions: for MIC: Escherichia coli, 18 h; for susceptibility category (S/I/R) given with the MIC: strain E22
Experimental: as §2, §1

- susceptibility category (S/I/R) given with the MIC [1]: S
- MIC [1]: ≤ 0.5 µg/mL
- MIC [2]: ≤ 0.5 µg/mL
- susceptibility category (S/I/R) given with the MIC [2]: S
- MIC [3]: ≤ 0.5 µg/mL
- susceptibility category (S/I/R) given with the MIC [3]: S
- MIC [4]: 8 µg/mL (≈ 22.1 µM)
- susceptibility category (S/I/R) given with the MIC [4]: R
- MIC [5]: > 8 µg/mL
- susceptibility category (S/I/R) given with the MIC [5]: R
- MIC [6]: ≤ 0.5 µg/mL
- susceptibility category (S/I/R) given with the MIC [6]: S
- MIC [7]: 8 µg/mL (≈ 22.1 µM)
- susceptibility category (S/I/R) given with the MIC [7]: R
- MIC [8]: ≤ 0.5 µg/mL
- susceptibility category (S/I/R) given with the MIC [8]: S
- MIC [9]: ≤ 0.5 µg/mL
- susceptibility category (S/I/R) given with the MIC [9]: S
- MIC [10]: 8 µg/mL (≈ 22.1 µM)
- susceptibility category (S/I/R) given with the MIC [10]: R
- MIC [11]: ≤ 0.5 µg/mL
- susceptibility category (S/I/R) given with the MIC [11]: S
- MIC [12]: ≤ 0.5 µg/mL
- susceptibility category (S/I/R) given with the MIC [12]: S
- MIC [13]: > 8 µg/mL
- susceptibility category (S/I/R) given with the MIC [13]: R
- MIC [14]: ≤ 0.5 µg/mL
- susceptibility category (S/I/R) given with the MIC [14]: S
- MIC [15]: > 8 µg/mL
- susceptibility category (S/I/R) given with the MIC [15]: R
- MIC [16]: 0.5 µg/mL (≈ 1.38 µM)
- susceptibility category (S/I/R) given with the MIC [16]: S
- MIC [17]: 1 µg/mL (≈ 2.77 µM)
- susceptibility category (S/I/R) given with the MIC [17]: I
- MIC [18]: > 8 µg/mL
- susceptibility category (S/I/R) given with the MIC [18]: R
- MIC [19]: > 8 µg/mL
- susceptibility category (S/I/R) given with the MIC [19]: R
- MIC [20]: > 8 µg/mL
- susceptibility category (S/I/R) given with the MIC [20]: R
- MIC [21]: > 8 µg/mL
- susceptibility category (S/I/R) given with the MIC [21]: R
- MIC [22]: ≤ 0.5 µg/mL
- susceptibility category (S/I/R) given with the MIC [22]: S
- MIC [23]: > 8 µg/mL
- susceptibility category (S/I/R) given with the MIC [23]: R
SMILES: C[C@H]1COc2c(N3CCN(C)CC3)c(F)cc3c(=O)c(C(=O)O)cn1c23 [LEV, levofloxacin]

SMILES: CN(C)[C@@H]1C(O)=C(C(N)=O)C(=O)[C@@]2(O)C(O)=C3C(=O)c4c(O)cccc4[C@@](C)(O)[C@H]3C[C@@H]12 [TET, tetracycline]
- susceptibility category (S/I/R) given with the MIC [1]: S
- MIC [1]: ≤ 0.5 µg/mL
- MIC [2]: ≤ 0.5 µg/mL
- susceptibility category (S/I/R) given with the MIC [2]: S
- MIC [3]: > 8 µg/mL
- susceptibility category (S/I/R) given with the MIC [3]: R
- MIC [4]: > 8 µg/mL
- susceptibility category (S/I/R) given with the MIC [4]: R
- MIC [5]: > 8 µg/mL
- susceptibility category (S/I/R) given with the MIC [5]: R
- MIC [6]: > 8 µg/mL
- susceptibility category (S/I/R) given with the MIC [6]: R
- MIC [7]: > 8 µg/mL
- susceptibility category (S/I/R) given with the MIC [7]: R
- MIC [8]: > 8 µg/mL
- susceptibility category (S/I/R) given with the MIC [8]: R
- MIC [9]: > 8 µg/mL
- susceptibility category (S/I/R) given with the MIC [9]: R
- MIC [10]: > 8 µg/mL
- susceptibility category (S/I/R) given with the MIC [10]: R
- MIC [11]: ≤ 0.5 µg/mL
- susceptibility category (S/I/R) given with the MIC [11]: S
- MIC [12]: > 8 µg/mL
- susceptibility category (S/I/R) given with the MIC [12]: R
- MIC [13]: > 8 µg/mL
- susceptibility category (S/I/R) given with the MIC [13]: R
- MIC [14]: ≤ 0.5 µg/mL
- susceptibility category (S/I/R) given with the MIC [14]: S
- MIC [15]: > 8 µg/mL
- susceptibility category (S/I/R) given with the MIC [15]: R
- MIC [16]: ≤ 0.5 µg/mL
- susceptibility category (S/I/R) given with the MIC [16]: S
- MIC [17]: ≤ 0.5 µg/mL
- susceptibility category (S/I/R) given with the MIC [17]: S
- MIC [18]: ≤ 0.5 µg/mL
- susceptibility category (S/I/R) given with the MIC [18]: S
- MIC [19]: ≤ 0.5 µg/mL
- susceptibility category (S/I/R) given with the MIC [19]: S
- MIC [20]: ≤ 0.5 µg/mL
- susceptibility category (S/I/R) given with the MIC [20]: S
- MIC [21]: ≤ 0.5 µg/mL
- susceptibility category (S/I/R) given with the MIC [21]: S
- MIC [22]: ≤ 0.5 µg/mL
- susceptibility category (S/I/R) given with the MIC [22]: S
- MIC [23]: ≤ 0.5 µg/mL
- susceptibility category (S/I/R) given with the MIC [23]: S

- susceptibility category (S/I/R) given with the MIC [1]: S
- MIC [1]: ≤ 2 µg/mL
- MIC [2]: ≤ 2 µg/mL
- susceptibility category (S/I/R) given with the MIC [2]: S
- MIC [3]: > 16 µg/mL
- susceptibility category (S/I/R) given with the MIC [3]: R
- MIC [4]: 16 µg/mL (≈ 33.3 µM)
- susceptibility category (S/I/R) given with the MIC [4]: R
- MIC [5]: > 16 µg/mL
- susceptibility category (S/I/R) given with the MIC [5]: R
- MIC [6]: > 16 µg/mL
- susceptibility category (S/I/R) given with the MIC [6]: R
- MIC [7]: > 16 µg/mL
- susceptibility category (S/I/R) given with the MIC [7]: R
- MIC [8]: > 16 µg/mL
- susceptibility category (S/I/R) given with the MIC [8]: R
- MIC [9]: ≤ 2 µg/mL
- susceptibility category (S/I/R) given with the MIC [9]: S
- MIC [10]: ≤ 2 µg/mL
- susceptibility category (S/I/R) given with the MIC [10]: S
- MIC [11]: 16 µg/mL (≈ 33.3 µM)
- susceptibility category (S/I/R) given with the MIC [11]: R
- MIC [12]: > 16 µg/mL
- susceptibility category (S/I/R) given with the MIC [12]: R
- MIC [13]: 4 µg/mL (≈ 8.32 µM)
- susceptibility category (S/I/R) given with the MIC [13]: I
- MIC [14]: ≤ 2 µg/mL
- susceptibility category (S/I/R) given with the MIC [14]: S
- MIC [15]: 16 µg/mL (≈ 33.3 µM)
- susceptibility category (S/I/R) given with the MIC [15]: R
- MIC [16]: ≤ 2 µg/mL
- susceptibility category (S/I/R) given with the MIC [16]: S
- MIC [17]: ≤ 2 µg/mL
- susceptibility category (S/I/R) given with the MIC [17]: S
- MIC [18]: ≤ 2 µg/mL
- susceptibility category (S/I/R) given with the MIC [18]: S
- MIC [19]: 16 µg/mL (≈ 33.3 µM)
- susceptibility category (S/I/R) given with the MIC [19]: R
- MIC [20]: 16 µg/mL (≈ 33.3 µM)
- susceptibility category (S/I/R) given with the MIC [20]: R
- MIC [21]: 16 µg/mL (≈ 33.3 µM)
- susceptibility category (S/I/R) given with the MIC [21]: R
- MIC [22]: 16 µg/mL (≈ 33.3 µM)
- susceptibility category (S/I/R) given with the MIC [22]: R
- MIC [23]: ≥ 32 µg/mL
- susceptibility category (S/I/R) given with the MIC [23]: R
SMILES: CO/N=C(\C(=O)N[C@@H]1C(=O)N2C(C(=O)[O-])=C(C[N+]3(C)CCCC3)CS[C@H]12)c1csc(N)n1 [FEP, cefepime]
